Data taken from paper PMC4815019, “The Terminal Oxidase Cytochrome bd Promotes Sulfide-resistant Bacterial Respiration and Growth” (Scientific Reports, 2016).

How the values were obtained:
[1] = target: T1, cytochrome bo3 (heme-copper bo3 oxidase) (Escherichia coli, UniProt P0ABI8); test: O2 consumption, high-resolution respirometry (Oxygraph-2k); Hill fit with n = […]; format: biochemical
T1 construct: gene cyoB; dodecyl maltoside micelles; with Cytochrome bo(3) ubiquinol oxidase subunit 2; Cytochrome bo(3) ubiquinol oxidase subunit 3; Cytochrome bo(3) ubiquinol oxidase subunit 4

[2] = target: O-acetylserine sulfhydrylase from Entamoeba histolytica (Entamoeba histolytica); test: SEC; 120-ml Superdex S-200 column, buffer A (50 mM potassium phosphate, 300 mM KCl, pH 7.5, 10% glycerol), 0.7 mL/min

T1 sequence (P0ABJ3 whole entry): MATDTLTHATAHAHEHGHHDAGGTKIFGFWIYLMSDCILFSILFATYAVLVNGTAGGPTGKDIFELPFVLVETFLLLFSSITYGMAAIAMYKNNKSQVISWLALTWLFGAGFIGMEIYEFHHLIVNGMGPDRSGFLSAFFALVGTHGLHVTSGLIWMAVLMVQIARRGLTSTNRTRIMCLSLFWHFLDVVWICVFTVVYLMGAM
T1 sequence (P0ABI8 whole entry): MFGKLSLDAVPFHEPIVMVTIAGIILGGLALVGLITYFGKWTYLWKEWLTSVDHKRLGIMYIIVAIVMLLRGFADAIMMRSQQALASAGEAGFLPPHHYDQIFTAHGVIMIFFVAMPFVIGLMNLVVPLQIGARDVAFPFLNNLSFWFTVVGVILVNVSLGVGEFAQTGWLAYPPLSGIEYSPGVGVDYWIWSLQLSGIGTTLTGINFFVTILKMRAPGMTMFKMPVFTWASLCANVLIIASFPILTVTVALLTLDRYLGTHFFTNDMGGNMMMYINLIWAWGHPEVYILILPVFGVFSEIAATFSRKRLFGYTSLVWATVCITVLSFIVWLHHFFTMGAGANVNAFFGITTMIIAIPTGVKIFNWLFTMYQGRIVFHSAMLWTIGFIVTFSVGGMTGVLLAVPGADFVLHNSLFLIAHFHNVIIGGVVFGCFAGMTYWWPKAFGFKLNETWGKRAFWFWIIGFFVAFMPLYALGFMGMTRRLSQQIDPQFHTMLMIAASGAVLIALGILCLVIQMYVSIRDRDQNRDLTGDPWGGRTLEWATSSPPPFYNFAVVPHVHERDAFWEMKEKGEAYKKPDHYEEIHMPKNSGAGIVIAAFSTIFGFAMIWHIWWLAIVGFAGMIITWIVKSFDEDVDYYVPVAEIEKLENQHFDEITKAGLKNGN
T1 sequence (P0ABJ1 25-315, further chain): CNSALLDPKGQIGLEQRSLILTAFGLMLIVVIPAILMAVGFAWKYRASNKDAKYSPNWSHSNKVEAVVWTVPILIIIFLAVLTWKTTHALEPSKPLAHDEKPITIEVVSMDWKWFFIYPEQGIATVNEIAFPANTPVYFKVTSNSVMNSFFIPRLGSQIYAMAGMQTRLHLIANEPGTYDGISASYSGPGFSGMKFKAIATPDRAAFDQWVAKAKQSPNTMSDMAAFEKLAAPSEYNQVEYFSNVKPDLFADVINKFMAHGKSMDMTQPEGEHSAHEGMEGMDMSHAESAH
T1 sequence (P0ABJ6 whole entry, further chain): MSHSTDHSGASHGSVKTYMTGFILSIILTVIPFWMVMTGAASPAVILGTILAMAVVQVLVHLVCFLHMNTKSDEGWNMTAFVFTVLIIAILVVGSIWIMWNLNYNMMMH

Compound | IC50 [1] [nM] | stoichiometry N [2]
S [NaHS] | 1100 ± 100 | 
O-acetylserine sulfhydrylase from Entamoeba histolytica (enzyme) |  | 2
